Measured values: patent US12544348B2, “Methods for treating APOE4/4-associated disorders” (The Regents of the University of California, priority 2018, dated 2026)

Test system: apoE4/4-iPSC-derived human neurons
Assay: RNA-Seq analysis of apoE4/4-iPSC-derived human neurons
Type: cell-based
Details: 10 μM, 6 hours
Text: Neuronal Differentiation of Human apoE4/4-iPSCs. Human iPS lines were generated from skin fibroblasts of a subject with apoE4/4 genotype and were maintained under feeder-free conditions in mTeSR1 medium (STEMCELL Technologies). Human apoE4/4-iPSCs were routinely passaged at 1:2-1:4 by brief treatment with Accutase (Millipore) and scraping. The human iPSC protocol was approved by the Committee on Human Research at the University of California. The apoE4/4-iPSCs were differentiated into neurons as reported with modifications. iPSCs were treated with collagenase IV (Stem Cell Technologies) and grown in suspension as embryoid bodies in hES medium without bFGF. The medium was replaced every day for 5 days. On day 5, embryoid bodies were grown in Neural Induction Medium containing Dulbecco's modified Eagle's medium/F12 and Neurobasal Medium (1:1, Thermo Fisher), 1% N2 Supplement (Life Technologies), 1% B27 Supplement (Life Technologies), nonessential amino acids, and 0.5% penicillin/streptomycin (Life Technologies) supplemented with inhibitors of the TGF-β receptor (SB431542, Stemgent; 5 μM) and the bone morphogenetic protein receptor (LDN-193189, Stemgent; 0.25 μM). On day 7, spheres were transferred to wells coated with Matrigel (BD Biosciences) and grown in Neural Progenitor Medium, which consisted of Neural Induction Medium without SB and LDN, but containing 10 ng/ml bFGF (PeproTech), 10 ng/ml epidermal growth factor (EGF) (PeproTech), and 2 μg/ml heparin (Sigma). Attached neuroepithelial cells were fed every other day for 7 days. Neural rosette structures appeared by around day 15, were lifted off the plate, and grown in suspension in Neural Progenitor Medium to form neurospheres. For neuronal differentiation, neurospheres were dissociated with Accutase and plated on culture plates coated with 100 μg/ml poly-1-ornithine (Sigma) and 10 μg/ml laminin (Sigma). Neuronal cultures were maintained in Neural Differentiation Medium consisting of Neural Progenitor Medium, brain-derived neurotrophic factor (10 ng/ml; PeproTech), and glial cell-derived growth factor (10 ng/ml; PeproTech) without bFGF, EGF, or heparin. Neurons were observed after several days and were further differentiated for 30 days or longer. Most of the experiments were performed on the neuronal culture differentiated beyond 8 weeks. This culture condition generated neuronal cells with 75±4% vGLUT^+ total glutamatergic excitatory neurons, 15±3% GABA^+ GABAergic inhibitory neurons, and 5±2% TH^+ dopaminergic neurons. RNA-Seq Analysis of Human ApoE4/4-iPS-derived Neurons. Total RNA was extracted and purified from apoE4/4-iPSC-derived human neurons with the Qiagen RNeasy Micro kit, which included a DNase treatment. cDNA was generated from full-length RNA (50 ng per sample) with the NuGEN RNA-Seq V2 kit, which uses the single primer isothermal amplification method to deplete ribosomal RNA, and sheared by Covaris to yield fragments of uniform size. The NuGen Ultralow system V2 was used for adding adapters and for barcoding and amplification. The resulting RNA libraries were purified with Agencourt XP magnetic beads, and quantified by qPCR after quality control with an Agilent Bioanalyzer. The libraries were pooled and sequenced with a HiSeq 4000 instrument (Illumina) for single-end (SE50) sequencing. Sequence data were aligned with the STAR short read aligner and counts per feature were obtained with the featureCounts function from the Subread package. […]

[1] = vs vehicle, P<0.05 by Monte Carlo Simulation

In the case of `CCCCNc1cc(C(=O)O)cc(S(N)(=O)=O)c1Oc1ccccc1` [bumetanide, 3-(butylamino)-4-phenoxy-5-sulfamoylbenzoic acid], the “number of pathways also shared with the apoE4/4 AD signature from humans” value is reported as 4, the “number of pathways overlapping with mouse hippocampal neuronal cells exhibiting the predicted drug effect” value is reported as 14 and the “number of significantly perturbed pathways” value is reported as 27. For the same molecule, the “shift in FC rank of genes downregulated in apoE4/4 AD” value [1] was “shifted upward towards lower rank numbers” and the “shift in FC rank of genes upregulated in apoE4/4 AD” value [1] was “shifted downward towards higher rank numbers”.
